Source: ChEMBL document CHEMBL3507680, “University of Dundee, Gates Library screen for HepG2 cell viability”

experiment: Human HepG2 cell viability assay in 384 well format; type: toxicity, cell-based; set-up: dose 125 nL, time 70.5 hour; concentration not given beside the values; conditions: HepG2 cells, read-out: Inhibition

In order of falling cytotoxicity at 70.5 h:
1. O=C(c1cnc(NCC2CCCO2)c(Cl)c1)N1CCCCC1 (stereo not given)  30.2%
2. CCCOC1CCCN(C(=O)c2ccnc(N3CCN(C)CC3)c2)C1 (stereo not given)  23%
3. Cc1nn(C)c(C)c1C1CCCN1C(=O)c1ccc(C(N)=O)s1 (stereo not given)  17.5%
4. Cc1nccc(CNC(=O)NC(c2ncc(C)s2)C2CC2)n1 (stereo not given)  17.4%
5. CC(C)C(C)N(C)Cc1nnc(-c2ccco2)o1 (stereo not given)  17.4%
6. CCNC(=O)c1ccc(NC2CCOC3(CCCCC3)C2)nn1 (stereo not given)  16.8%
7. CCC(CC)C(=O)NCC1(NC(C)c2ccccc2)CCOCC1 (stereo not given)  16.6%
8. CCNC(=O)NC(=O)CNC1(c2noc(C)n2)CCCC1  16.6%
9. N#Cc1cccc(CN2CCCC2c2ccc[nH]2)c1 (stereo not given)  15.2%
10. Clc1ccccc1CNC(Cn1cncn1)c1ccccc1 (stereo not given)  14.7%
11. Cc1noc(C)c1C(=O)NCc1cc[nH]n1  11.4%
12. CCc1ccc(C2CCCN2C(=O)Cc2ccc(NC(C)=O)cc2)o1 (stereo not given)  10.6%
13. NC(=O)CN1CCc2c(Br)ccc(F)c2C1  3.38%
14. Cc1cc(NC(=O)CNc2ccc(Br)cc2F)on1  2.93%
15. Cc1cnn(CCNCc2cc(C)no2)c1  2.88%
16. CCC(NC(=O)NCC(=O)Nc1ccc(F)cc1)c1ccncc1 (stereo not given)  2.31%
17. CC(=O)N1CCN(CCNS(=O)(=O)c2ccc(F)c(F)c2)CC1  2.27%
18. O=C1CSCN1CC(=O)N1CCCC1c1nc2ccccc2s1 (stereo not given)  2.26%
19. CCOC(C)C(=O)NS(=O)(=O)c1cccc2cc(C)cnc12 (stereo not given)  1.55%
20. FC(F)Oc1ccc(CN2CCOC3(CCOCC3)C2)cc1Cl  1.46%
21. O=C(NCCN1CCOCC1)c1cc(-c2ccccc2Cl)[nH]n1  1.45%
22. CCN1CCCCC1C(=O)N1CCC(OCCOC)CC1 (stereo not given)  1.39%
23. CC(C)(C)n1ncc2c(=O)[nH]c(N3CC(O)C3)nc21  0.684%
24. COc1cc(OC)cc(N2CCC(NCc3cccs3)C2=O)c1 (stereo not given)  -0.0615%
25. Cc1cnc2c(S(=O)(=O)NC(=O)C(C)OCC3CC3)cccc2c1 (stereo not given)  -0.0884%
26. Cc1csc(-c2cccc(NC(=O)NCC(C)(C)C(N)=O)c2)n1  -0.0997%
27. CNC(=O)NC(=O)CN1CCc2c(Br)ccc(F)c2C1  -0.281%
28. O=C(NCCCNC(=O)c1cccc(O)c1)Nc1ccc(Cl)cc1  -0.328%
29. Cc1ncc2c(n1)CN(Cc1cn3ccsc3n1)CC2  -0.474%
30. NC(=O)c1cnc(NC2CCN(C(=O)C3CC3)CC2)c(Cl)c1  -0.537%
31. Cc1nnc(NCC(c2ccco2)N2CCCCC2)c(C#N)c1C (stereo not given)  -0.616%
32. CNC(=O)c1cccc(NC(=O)c2ccnc(N(C)C)c2)c1C  -0.673%
33. O=C(NCCN1CCOCC1)NCc1ccccc1-n1cccn1  -0.678%
34. Cc1cn2c(CN(C)C(=O)c3ncoc3C)c(C)nc2s1  -0.848%
35. CCCOc1cc(CNC(=O)Nc2cccc(C(C)=O)c2)ccn1  -0.91%
36. CNS(=O)(=O)CC(=O)NCc1cc2c(s1)CCCCC2  -1.17%
37. NC(=O)COc1cccc(Cn2cc(Br)cn2)c1  -1.2%
38. OCc1cccc(CNCc2cccc3c2OCCO3)c1  -1.29%
39. Cc1cccc(C(=O)NCC2CCS(=O)(=O)C2)n1 (stereo not given)  -1.5%
40. Fc1cc(CN2CCOC3(CCOCC3)C2)ccc1Cl  -1.5%
41. Cc1cc(C(=O)N(C)C(C)CC(C)C)on1 (stereo not given)  -1.57%
42. CNS(=O)(=O)CC(=O)NCc1cc2c(s1)CCC(C)(C)C2  -1.59%
43. Cc1nc(C(C)C)sc1C(C)N(C)C(=O)c1ccc(=O)n(C)n1 (stereo not given)  -1.77%
44. CCc1ncncc1C(=O)NCCNS(=O)(=O)c1ccc(C)cc1  -1.77%
45. CCOC(=O)NCCC(=O)NCc1ccnc(Oc2ccc(F)cc2)c1  -1.77%
46. COc1ccc(C(CC(=O)O)NC(=O)c2cc(C)on2)cc1 (stereo not given)  -1.84%
47. O=C1CCC(=O)N1CCn1nnc(-c2ccc(Br)cc2)n1  -2.01%
48. CCNC(=O)Cc1ccc(NC(=O)NC(CC)c2ccncc2)cc1 (stereo not given)  -2.39%
49. CCCOc1cc(CNC(=O)Nc2ccc(C)cc2)ccn1  -2.77%
50. COC(C)C(=O)NS(=O)(=O)c1cccc2cc(C)cnc12 (stereo not given)  -2.88%
51. Cc1nc2cc(=O)[nH]n2c(C)c1CC(=O)Nc1cnn(C(C)(C)C)c1  -3.02%
52. COc1ccc(C)cc1CN(CC(N)=O)C(C)C  -3.29%
53. NC(=O)C(CNC(=O)Cc1ccsc1)Cc1ccc(F)cc1 (stereo not given)  -3.39%
54. Cc1ccc(NS(=O)(=O)c2ccc(C#N)cc2)c(CN(C)C)c1  -3.45%
55. Cc1ccc(-c2cc(C(=O)NCCN3CCOCC3)n[nH]2)s1  -3.46%
56. CCc1nsc(N2CCOC3(CCCC3)C2)n1  -3.55%
57. Cn1c(C2CCCN2C(=O)CN2CCCC2=O)nc2ccccc21 (stereo not given)  -3.63%
58. Cc1occc1C(=O)N1CCOC2(CCCC2)C1  -3.65%
59. O=C(NCCOc1cccc(Cl)c1Cl)N1CCC2(CC1)OCCO2  -4.01%
60. CC(Cc1ccccc1F)NC(=O)CCc1nc(-c2nnc[nH]2)no1 (stereo not given)  -4.06%
61. CC(C)(C)n1ncc2c(=O)[nH]c(N3CCN(CC(F)F)CC3)nc21  -4.17%
62. CN(C)C1Cc2ccccc2N(S(=O)(=O)c2cccc(C#N)c2)C1 (stereo not given)  -4.2%
63. CCOC(=O)c1nnc2ccccc2c1N1CCN(C(C)C)CC1  -4.21%
64. Cc1cn2c(CN(C)C(=O)c3cccnc3O)c(C)nc2s1  -4.29%
65. Cc1cc(C)c(CNC(=O)N2CCNC(=O)C2)c(=O)[nH]1  -4.49%
66. CCN(Cc1ccccn1)C1CCN(c2ccccc2)C1=O (stereo not given)  -5.06%
67. CCN1CCCCC1C(=O)N1CCN(C(=O)OC)CC1 (stereo not given)  -5.22%
68. CC1CCCN(Cc2ccc(CNC(=O)NCc3ccncc3)cc2)C1 (stereo not given)  -5.32%
69. COc1ccc(Oc2ccc(CNC(=O)C3CCS(=O)(=O)C3)cn2)cc1 (stereo not given)  -6.05%
70. CC(C)(C)NC(=O)COc1ccc(Oc2ccccn2)cc1  -6.32%
71. Cc1ccc(CN(C)C(=O)CN2CCc3ccccc3C2)o1  -6.98%
72. CCc1ocnc1C(=O)N1CCOCC1CC(=O)c1ccccc1 (stereo not given)  -7.1%
73. CN(C)C1Cc2ccccc2N(S(=O)(=O)c2ccc(C#N)cc2)C1 (stereo not given)  -7.27%
74. CC(C)c1cnc(CN2CCCC(c3ccn[nH]3)C2)o1 (stereo not given)  -7.68%
75. Cc1cc(C(=O)N(CC(=O)O)CC(C)C)ccc1F  -7.96%
76. CN(CCCNC(=O)NCc1ccncc1)CC(F)(F)F  -8.47%
77. CCOCC(=O)NCC1(NC(C)c2ccccc2)CCOCC1 (stereo not given)  -8.52%
78. COc1ccc(C)cc1CC(=O)Nc1cc(C)n[nH]1  -8.99%
79. CCN(CC)C(=O)CCCNC(=O)c1csc(NC2CC2)n1  -9.34%
80. CC(=O)Nc1cccc(CN2CCN(C3=NCC(C)(C)S3)CC2)c1  -10.7%
81. COC(=O)N1CCCC(C(=O)NCCc2c[nH]c3cc(C)ccc23)C1 (stereo not given)  -10.8%
82. O=C(CN1CCc2cncnc2C1)N1CCc2sccc2C1  -11%
83. Cc1noc(NCc2cn(C)nc2-c2ccncc2)n1  -11.4%
84. COc1ccc(OC)c(CCC(=O)Nc2cc(C)n[nH]2)c1  -13.4%
85. COc1cccc(S(=O)(=O)CCN2CCCC2c2ccc[nH]2)c1 (stereo not given)  -16.8%
